Data taken from patent publication US20080090788A1, “Chemical Compounds” (priority 2005, published 2008).

Legend:
[1] = system: IkB-α; test: IkB-α phosphorylation and degradation by immunoblotting in LPS-stimulated U937 cells; type: cell-based, human; conditions: 30 minutes after LPS; for effect on IkB-α phosphorylation and degradation: 1 hour pretreatment
Procedure: Western blotting was performed as previously described (Brimmell M, Burns J S, Munson P, et al. High level expression of differentially localized BAG-1 isoforms in some oestrogen receptor-positive human breast cancers. Br J Cancer 1999; 81: 1042-51). IkB-α and phospho-Ser32 specific IkB-α antibodies were from Cell Signaling Technology (Hitchin, UK). The PARP antibody (C2-10 clone) was from R&D Systems (Abingdon, UK).
To determine the kinetics of modulation of IkB-α by LPS, U937 cells were treated with LPS for up to 120 minutes and total IkB-α and phosphorylated IkB-αanalysed by immunoblotting. There was a rapid accumulation of phosphorylated IkB-α, accompanied by IkB-α degradation (FIG. 3a). To confirm that the enhanced NF-kB inhibitory activity of compounds 3a, 3e and 3f was due to increased inhibition of IKK, we pretreated cells with these compounds and then stimulated them with LPS. IkB-α was analysed at 30 minutes after the addition of LPS because it was possible to monitor both phosphorylation and degradation at this time. […] Therefore, the improved NF-kB inhibitory activity of compounds 3a, 3e and 3f is associated with effective inhibition of IkB-α phosphorylation.
(A) U937-kBluc cells were treated with LPS for the indicated times and expression of total IkB-α and phosphorylated IkB-α determined by immunoblotting. (B) U937-kBluc cells were pretreated with the indicated concentrations of compounds or left untreated. After 1 hour, cells were stimulated with LPS. Control cells were cultured in the absence of LPS. Cells were harvested after 30 minutes and the expression of total IkB-α and phosphorylated IkB-α determined by immunoblotting. The signals were quantified by digital image analysis and the fold increase in IkB-α phosphorylation and percent expression of total IkB-α relative to control cells is shown.

[2] = system: ARH77 cells; test: Cell death in ARH77 cells, propidium iodide flow cytometry; type: cell-based; conditions: Homo sapiens, ARH-77; 20 hours, PI uptake; mean of two determinations ±SD; read-out: IC50 for induction of ARH77 cell death
Procedure: A flow cytometry method was used to determine the ability of SFZ analogues to induce cell death in ARH77 cells. The proportion of cells that had lost plasma membrane integrity was used as a measure of cell viability. ARH77 (5×10^4) cells were incubated in a volume of 200 μl in 96 well plates with compound, an equivalent amount of DMSO or were left untreated as a control. After 20 hours, cells were washed in phosphate buffered saline (PBS), resuspended in PBS containing 1 μg/ml propidium iodide (PI) for 10 minutes. Cells were analysed using a FACSCalibur (BD Biosciences, Oxford, UK) using the FL2 channel. […] The proportion of cells with intense fluorescence as a proportion of total cells was calculated.
To assess cell death promoting activity, the ability of SFZ and the analogues with enhanced NF-kB inhibiting activity (3a, 3e and 3f) to kill Epstein-Barr virus transformed human B-cells, which are dependent on NF-kB for survival was compared (Cahir-McFarland E D, Carter K, Rosenwald A, et al. Role of NF-kB in cell survival and transcription of latent membrane protein 1-expressing or Epstein-Barr virus latency III-infected cells. J Virol 2004; 78: 4108-4119). […] Dose response experiments were performed to determine IC50 values (FIG. 4b).
ARH77 cells were incubated with various concentrations of SFZ, compounds 3a, 3e and 3f, DMSO as a solvent control, or were left untreated. […] (A) Representative histogram of fluorescence in untreated, DMSO or compound 3e (250 μM) treated cells. (B) Representative dose response experiment (□, untreated; ♦, DMSO; ▴, SFZ; ●, 3a; +, 3e; ×, 3f). Each data point is the mean of duplicate determinations (±SD). (C) Mean IC50 values (±SD) for induction of ARH77 cell death, derived from two independent experiments each performed in duplicate.

[3] = system: Hepatic stellate cells (HSC); test: HSC apoptosis by acridine orange staining; type: cell-based, rat; conditions: for degree of HSC apoptosis compared with SFZ 1 mM: 3a 0.150 mM, 3e 0.127 mM, 3f 0.089 mM (approximately 5-fold lower concentrations)
Procedure: To determine the effects of SFZ analogues on HSC survival, activated HSC were treated for 24 hrs with SFZ or analogues, and apoptotic HSC were visualised by staining with Acridine orange (1 μg/ml in 10 mM 4-(2-hydroxyethyl)-1-piperazineethanesulfonic acid (Hepes) buffer, pH7.4). The proportion of apoptotic cells in five random fields were counted in duplicate wells at x20 magnification using a fluorescein isothiocyanate filter. Apoptosis of HSC measured by acridine orange correlates closely with activation of caspase 3.
In addition to its role in malignant cells, NF-kB is required for survival of HSC, which play a key role in the pathogenesis of chronic liver disease. The ability of SFZ and analogues to induce HSC apoptosis was also compared. SFZ (1 mM) increased apoptosis ˜4.5-fold in cultured rat HSC (FIG. 5b). […] Therefore, the SFZ analogues with improved NF-kB-inhibiting activity are also relatively potent inducers of HSC apoptosis.
(A) CLL cells from three different patients were cultured in the presence of SFZ or compounds 3a and 3f (all at 0.5 mM), or DMSO as a solvent control. After 6 hours, the degree of PARP cleavage was determined as a measure of apoptosis. […] Note that compound 3f was not tested in cells from patient 3. (B) HSC were cultured in the presence of SFZ (1 mM), compounds 3a (0.150 mM), 3e (0.127 mM), 3f (0.089 mM), or DMSO as a solvent control. Analogues were used at the concentration that gave 50% inhibition of NF-kB transcriptional activity in U937 cells. After 20 hours, the proportion of apoptotic cells were visualised by acridine orange staining. Apoptotic cells were counted in five fields in duplicate for each concentration, in two independent experiments and results expressed as mean ±SEM,

Structure (SMILES): COc1ccc(CNS(=O)(=O)c2ccc(/N=N/c3ccc(O)c(C(=O)O)c3)cc2)cc1 [Compound 3a, 2-hydroxy-5-[4-(4-methoxy-benzylsulfamoyl)-phenylazo]-benzoic acid]
- effect on IkB-α phosphorylation and degradation ([1]; 200 μM): partially effective
- effect on IkB-α phosphorylation and degradation ([1]; 500 μM): prevented IkB-α phosphorylation and degradation
- IC50 [2]: 499 ± 93 µM
- degree of HSC apoptosis compared with SFZ 1 mM [3]: approximately the same degree of apoptosis

Structure (SMILES): O=C(O)c1cc(/N=N/c2ccc(S(=O)(=O)NCc3ccc(C(F)(F)F)cc3)cc2)ccc1O [Compound 3f, 2-hydroxy-5-[4-(4-trifluoromethyl-benzylsulfamoyl)-phenylazo]-benzoic acid]
- effect on IkB-α phosphorylation and degradation ([1]; 200 μM): partially effective
- effect on IkB-α phosphorylation and degradation ([1]; 500 μM): prevented IkB-α phosphorylation and degradation
- IC50 [2]: 407 ± 11 µM
- degree of HSC apoptosis compared with SFZ 1 mM [3]: approximately the same degree of apoptosis

Structure (SMILES): O=C(O)c1cc(/N=N/c2ccc(S(=O)(=O)Nc3ccccn3)cc2)ccc1O [SFZ, Sulfasalazine, reference compound]
- effect on regulation of IkB-α ([1]; 1 mM): only very modest effects
- IC50 [2]: 1100 ± 250 µM
- increase in apoptosis of cultured HSC ([3]; SFZ 1 mM, cultured rat HSC): ~4.5 fold

Structure (SMILES): Cc1cc(/N=N/c2ccc(S(=O)(=O)NCc3ccc(C(F)(F)F)cc3)cc2)cc(C(=O)O)c1O [Compound 3e, 2-hydroxy-3-methyl-5-[4-(4-trifluoromethyl-benzylsulfamoyl)-phenylazo]-benzoic acid]
- effect on IkB-α phosphorylation and degradation ([1]; 200 μM): partially effective
- effect on IkB-α phosphorylation and degradation ([1]; 500 μM): prevented IkB-α phosphorylation and degradation
- IC50 [2]: 195 ± 38 µM
- degree of HSC apoptosis compared with SFZ 1 mM [3]: approximately the same degree of apoptosis
